Data published in the OPERA property sets (Mansouri et al. 2018).

Details: not given

Structure (SMILES)	boiling point [°C]	melting point [°C]	log10 vapour pressure (mmHg)	ready biodegradability	log10 Koa	log10 Henry constant (atm·m³/mol)	log10 Koc (L/kg)	log10 biodegradation half-life (days)
Cc1cnc2ccccc2c1	260	16.5	–	–	–	–	–	–
CC(C)(O)CO	176	–	–	–	–	–	–	–
CC(=O)c1ccc(C(C)=O)cc1	–	112	–	–	–	–	–	–
CC1C=CCCC1 (configuration not stated)	103	–	1.54	–	–	–	–	–
COc1c(Br)cc(Br)cc1Br	298	88	–	–	–	–	–	–
CCCCCCCCCCCC(=O)OCC(O)C1OCC(O)C1O (configuration not stated)	–	–	–	readily biodegradable	–	–	–	–
Cc1cc(O)c(C)c(C)c1C	266	85.3	–	–	–	–	–	–
O=COCCCc1ccccc1	250	–	–	–	–	–	–	–
Nc1cccc2cccnc12	–	70	–	–	–	–	–	–
CCCN(CCC)N=O	206	–	–	not readily biodegradable	–	–	–	–
Cc1cc(C2(c3ccc(O)c(C)c3)OC(=O)c3ccccc32)ccc1O	–	223	–	–	–	–	–	–
Cn1c(=O)ccc2ccccc21	325	74	–	–	–	–	–	–
FC(F)(F)C(F)(F)C(F)(F)C(F)(F)C(F)(F)F	29.2	-100	–	–	–	–	–	–
NC(=S)Nc1cccc2ccccc12	–	198	–	–	–	–	–	–
CN(C)c1cccc(C(=O)O)c1	–	–	–	not readily biodegradable	–	–	–	–
C=C(CCl)CCl	138	-14	–	–	–	–	–	–
c1cnc(N2CCN(Cc3ccc4c(c3)OCO4)CC2)nc1	–	98	–	–	–	–	–	–
CCCCCCCCC(C(=O)O)C(=O)O	–	116	–	–	–	–	–	–
COC(=O)c1ccccc1OC(C)=O	–	51.5	–	–	–	–	–	–
Cc1ccc(S(=O)O)cc1	–	86.5	–	–	–	–	–	–
Clc1cc2c(Cl)c(Cl)c(Cl)cc2c(Cl)c1Cl	–	–	-6.46	–	9.58	–	–	–
CCCCCCCCCCCCCCCCCCCCC1CCCCC1	430	48.5	–	–	–	–	–	–
CC(=O)OC(C)C	88.6	-73.4	1.78	readily biodegradable	2.93	-3.56	–	–
FC(F)(Cl)C(F)(F)Cl	3.8	-94	3.3	–	–	–	–	–
O=c1occc2ccccc12	286	47	–	–	–	–	–	–
CCc1cc2c(s1)N(C)C(=O)CN=C2c1ccccc1Cl	–	119	–	–	–	–	–	–
O=[N+]([O-])c1cc(S(=O)(=O)c2ccc(F)c([N+](=O)[O-])c2)ccc1F	–	194	–	–	–	–	–	–

Structure (SMILES)	boiling point [°C]	melting point [°C]	log10 vapour pressure (mmHg)	ready biodegradability	log10 Koa	log10 Henry constant (atm·m³/mol)	log10 Koc (L/kg)	log10 biodegradation half-life (days)
COc1cc2c(c(O)c1OC)CCN(C)[C@H]2C	–	152	–	–	–	–	–	–
CC(C)C1=CC(O)C(C)CC1 (configuration not stated)	220	–	–	–	–	–	–	–
CCCN1CCCCC1	152	–	–	–	–	–	–	–
CC(=O)OCC(COC(C)=O)OC(C)=O	259	–	-2.61	readily biodegradable	–	–	–	–
CC(C)=C1OC(=O)N(c2cc(OC3CCCC3)c(Cl)cc2F)C1=O	–	104	–	–	–	–	–	–
CC(C)CCC(C)(C)O	154	–	–	–	–	–	–	–
Nc1ncnc2c1ncn2[C@@H]1O[C@H](CO)[C@@H](O)[C@H]1O	–	246	–	–	–	–	–	–
CN(C)[Si](C)(C)C	86	–	–	–	–	–	–	–
CCOP(=S)(OCC)Oc1nc(Cl)c(Cl)cc1Cl	–	42	-4.69	not readily biodegradable	–	-5.53	3.7	–
CC(CC(=O)O)C(=O)O (configuration not stated)	–	118	–	–	–	–	–	–
C1CC2CCCC(C1)C2	170	146	–	–	–	–	–	–
CNCC(O)c1ccc(O)cc1 (configuration not stated)	–	184	–	–	–	–	–	–
CC(=O)c1c(F)c(F)c(F)c(F)c1F	–	130	–	–	–	–	–	–
Cc1cc(C)cc(O)c1	222	63.6	-1.39	–	–	-6.21	2.83	–
CN[C@@H](C)[C@@H](O)c1ccccc1	–	90.5	–	–	–	–	–	–
Nc1ccc(S(=O)c2ccc(N)cc2)cc1	–	175	–	–	–	–	–	–
CO[Si](OC)(OC)OC	121	–	–	–	–	–	–	–
CCCCCCC[N+](=O)[O-]	194	–	–	–	–	–	–	–
CC(=O)N(C(C)=O)c1ccccc1	–	37.5	–	–	–	–	–	–
CCS(=O)(=O)c1ccc(F)cc1	–	41	–	–	–	–	–	–
CCC(CC)c1ccccn1	195	–	–	–	–	–	–	–
Cc1ccc([C@H](C)O)cc1	219	–	–	–	–	–	–	–
c1cc2ccc3cccc4ccc(c1)c2c34	404	151	-5.35	–	8.8	-4.92	4.9	2.37
Clc1ccc(Oc2cccc(Cl)c2Cl)cc1	–	–	-3.94	–	–	–	–	–
CCOC(C)(C)OCC	114	–	–	–	–	–	–	–
CC(=O)Nc1ncc([N+](=O)[O-])s1	–	264	–	–	–	–	–	–
Clc1ccc(/N=N/c2ccccc2)cc1	–	88	-5.7	–	–	–	–	–

Structure (SMILES)	boiling point [°C]	melting point [°C]	log10 vapour pressure (mmHg)	ready biodegradability	log10 Koa	log10 Henry constant (atm·m³/mol)	log10 Koc (L/kg)	log10 biodegradation half-life (days)
C=CC12CN(C)C3C4COC(CC41)[C@]1(C(=O)Nc4ccccc41)C32 (some centres not stated)	–	178	–	–	–	–	–	–
FC(F)(F)COCC(F)(F)F	63.9	–	2.19	–	–	–	–	–
Clc1cccc(-c2ccccc2)c1Cl	–	–	–	–	–	-3.64	–	–
COC1CCC(OC)O1 (configuration not stated)	146	–	–	–	–	–	–	–
OCC(CO)(CO)COCC(CO)(CO)CO	–	221	–	not readily biodegradable	–	–	–	–
c1ccc(COc2ccccc2)cc1	286	40	-2.2	–	–	–	–	–
O=C1CCCCCCCCC1=O	–	40.5	–	–	–	–	–	–
CCSC	66.7	-106	2.2	–	–	–	–	–
COC(=O)C(Br)CBr (configuration not stated)	206	–	–	–	–	–	–	–
C=C(C)C(=O)O	163	16	-0.0044	readily biodegradable	–	-6.41	–	–
O=C(O)c1cnccn1	–	–	–	readily biodegradable	–	–	–	–
Cc1ccc([N+](=O)[O-])c(Cl)c1	–	24	–	–	–	–	–	–
CCC(C)O[N+](=O)[O-] (configuration not stated)	124	–	–	–	–	–	–	–
Cc1ccc(O)cc1C	–	–	–	readily biodegradable	–	–	–	–
CCc1cccc(C)c1	161	-95.5	0.483	–	–	–	–	0.477
N#CI	–	147	–	–	–	–	–	–
CC(C)CCI	147	–	–	–	–	–	–	–
O=c1cc[nH]c(=O)[nH]1	–	338	-4.33	–	–	–	–	–
C=C(Cl)C(C)Cl (configuration not stated)	112	–	–	–	–	–	–	–
CCCOC(=O)CCl	161	–	–	–	–	–	–	–
CC12CCC(C1)C(C)(C)C2O (configuration not stated)	–	–	-1.2	–	–	–	–	–
CCN(C(=O)SCc1ccccc1)C(C)C(C)C (configuration not stated)	–	–	-5.12	–	–	–	–	–
C[C@H]1C(=O)CC[C@@H]2[C@]1(C)CC[C@H]1[C@@]2(C)CC[C@@]2(C)[C@@H]3CC(C)(C)CC[C@]3(C)CC[C@]12C	–	263	–	–	–	–	–	–
Cc1ccc(CC(C)C)cc1	196	–	–	–	–	–	–	–
O=[N+]([O-])c1ccc(I)cc1	288	175	–	–	–	–	–	–
CC(O)COCc1c(Cl)ccc(Cl)c1Cl (configuration not stated)	–	–	-4	–	–	–	–	–
CC(O)C(O)CO (configuration not stated)	–	–	-2.47	–	–	–	–	–

Structure (SMILES)	boiling point [°C]	melting point [°C]	log10 vapour pressure (mmHg)	ready biodegradability	log10 Koa	log10 Henry constant (atm·m³/mol)	log10 Koc (L/kg)	log10 biodegradation half-life (days)
CCOCCOC(=O)c1ccccc1C(=O)OCCOCC	345	34	–	–	–	–	–	–
COc1ccc(C=O)c(OC)c1	290	72	–	–	–	–	–	–
CCC(C)(Cl)Cl	104	-74	–	–	–	–	–	–
Fc1c(F)c(F)c(Br)c(F)c1F	137	-31	0.903	–	–	–	–	–
CC[Si](Cl)(Cl)CC	–	-96.5	–	–	–	–	–	–
Clc1cc(Cl)c(-c2c(Cl)cc(Cl)c(Cl)c2Cl)cc1Cl	–	83	–	–	–	–	–	–
c1ccc(-c2c3ccccc3c(-c3ccccc3)c3ccccc23)cc1	–	246	-9.84	–	–	–	–	–
CC1(C)CC[C@]2(C)CC=C3[C@]4(C)CC[C@H]5C(C)(C)[C@@H](O)CC[C@]5(C)[C@H]4CC[C@@]3(C)[C@@H]2C1	–	284	–	–	–	–	–	–
Cc1cccc(C)c1Br	204	–	–	–	–	–	–	–
CCOCCOCCOCCO	256	-18.7	-2	readily biodegradable	–	–	–	–
FC(F)(F)C1(F)C(F)(F)C(F)(C(F)(F)F)C(F)(F)C(F)(C(F)(F)F)C1(F)F (configuration not stated)	125	–	–	–	–	–	–	–
CC(C)(C)CCCl	115	–	–	–	–	–	–	–
OC[C@@H](O)[C@H]1O[C@@H]2O[C@H](C(Cl)(Cl)Cl)O[C@@H]2[C@H]1O	–	183	–	–	–	–	–	–
Cn1ccnc1	196	-6	–	–	–	–	–	–
CCS	35.1	-148	2.72	–	–	-2.34	–	–
C=C(C)C(=O)OC	100	-48	1.59	readily biodegradable	–	–	–	–
CNC[C@H](O)c1ccc(O)c(O)c1	–	212	–	–	–	–	–	–
CNS(=O)(=O)c1ccc(C)cc1	–	78.5	–	–	–	–	–	–
CCCCCC(C)CCC (configuration not stated)	166	-99	–	–	–	–	–	–
Cc1ccccc1OP(=O)(Oc1ccccc1C)Oc1ccccc1C	–	–	–	readily biodegradable	–	–	–	–
C#COCC	50	–	–	–	–	–	–	–
O=C(OCC(=O)N1CCCCCC1)c1ccccc1	–	108	–	–	–	–	–	–
CCC1CCc2ccccc21 (configuration not stated)	212	–	–	–	–	–	–	–
COc1cccc(C(C)=O)c1	240	–	–	–	–	–	–	–

Same assay, conditions: fish

Structure (SMILES)	log10 BCF	log10 biotransformation half-life (days)
CCOP(=S)(OCC)Oc1nc(Cl)c(Cl)cc1Cl	3.18	0.77
c1cc2ccc3cccc4ccc(c1)c2c34	3.18	0.32
CC(=CC(C)(C)C)CC(C)(C)C	–	0.7
Clc1cccc(-c2ccccc2)c1Cl	3.98	2.15
Clc1cc(Cl)c(-c2c(Cl)cc(Cl)c(Cl)c2Cl)cc1Cl	–	2.59
Cc1ccccc1OP(=O)(Oc1ccccc1C)Oc1ccccc1C	–	0.5
